Laboratory results published in patent US11702404B2, “GLP-1R modulating compounds” (priority 2019, dated 2023).

Columns and labels:
GLP-1R = GLP-1R (Homo sapiens, UniProt P43220); experiment: GLP-1R activation: cAMP increase in CHO cells stably expressing GLP-1R; format: cell-based; conditions: cAMP increase, CHO cells stably expressing GLP-1R, 10 point dose response, 30 minutes incubation; read-out: EC50
[1] = Microsomal stability, human liver microsomes (predicted hepatic clearance); conditions: predicted from in vitro microsomal stability data

Chain of GLP-1R (P43220 24-463): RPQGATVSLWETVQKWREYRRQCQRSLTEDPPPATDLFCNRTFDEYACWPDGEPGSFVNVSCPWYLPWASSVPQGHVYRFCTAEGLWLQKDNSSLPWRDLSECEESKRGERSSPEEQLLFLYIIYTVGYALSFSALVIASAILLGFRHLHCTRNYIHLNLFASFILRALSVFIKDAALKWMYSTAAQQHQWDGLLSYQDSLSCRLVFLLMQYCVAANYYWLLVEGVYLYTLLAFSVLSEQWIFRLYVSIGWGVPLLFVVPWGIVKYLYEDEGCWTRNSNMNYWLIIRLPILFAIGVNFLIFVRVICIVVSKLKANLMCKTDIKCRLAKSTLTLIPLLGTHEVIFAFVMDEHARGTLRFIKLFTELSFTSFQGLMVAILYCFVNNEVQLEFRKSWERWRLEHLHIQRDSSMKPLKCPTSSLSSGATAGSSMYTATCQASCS

| EC50 (GLP-1R) [µM] | Predicted Hepatic Clearance (Pred. Cl.) [1] [L/h/kg] | SMILES |
| --- | --- | --- |
| 0.162 | 0.53 | COCCn1c(Cc2ccc(-c3cccc(OCc4cccc(C(C)(C)C#N)c4)n3)cc2F)nc2ccc(C(=O)O)cc21 [Example 142, 2-(4-(6-((3-(2-cyanopropan-2-yl)benzyl)oxy)pyridin-2-yl)-2-fluorobenzyl)-1-(2-methoxyethyl)-1H-benzo[d]imidazole-6-carboxylic acid] |
| 0.00259 | 0.32 | COCCn1c(Cc2ccc(-c3cccc(OCc4ccc(Cl)c5ccoc45)n3)cc2F)nc2ccc(C(=O)O)cc21 [Example 143, 2-(4-(6-((4-chlorobenzofuran-7-yl)methoxy)pyridin-2-yl)-2-fluorobenzyl)-1-(2-methoxyethyl)-1H-benzo[d]imidazole-6-carboxylic acid] |
| 1.73 | 0.5 | COCCn1c(Cc2ccc(-c3cccc(OCc4cc(C(C)C)ccc4OC)n3)cc2F)nc2ccc(C(=O)O)cc21 [Example 145, 2-(2-fluoro-4-(6-((5-isopropyl-2-methoxybenzyl)oxy)pyridin-2-yl)benzyl)-1-(2-methoxyethyl)-1H-benzo[d]imidazole-6-carboxylic acid] |
| 0.0364 | 0.44 | COCCn1c(Cc2ccc(-c3cccc(OCc4cccc5scnc45)n3)cc2F)nc2ccc(C(=O)O)cc21 [Example 146, 2-(4-(6-(benzo[d]thiazol-4-ylmethoxy)pyridin-2-yl)-2-fluorobenzyl)-1-(2-methoxyethyl)-1H-benzo[d]imidazole-6-carboxylic acid] |
| 0.76 | 0.7 | COCCn1c(Cc2ccc(-c3cccc(OCc4cccc5c4nnn5C)n3)cc2F)nc2ccc(C(=O)O)cc21 [Example 147, 2-(2-fluoro-4-(6-((1-methyl-1H-benzo[d][1,2,3]triazol-4-yl)methoxy)pyridin-2-yl)benzyl)-1-(2-methoxyethyl)-1H-benzo[d]imidazole-6-carboxylic acid] |
| 2.05 | 0.69 | COCCn1c(Cc2ccc(-c3cccc(OCc4cccc5ncsc45)n3)cc2F)nc2ccc(C(=O)O)cc21 [Example 148, 2-(4-(6-(benzo[d]thiazol-7-ylmethoxy)pyridin-2-yl)-2-fluorobenzyl)-1-(2-methoxyethyl)-1H-benzo[d]imidazole-6-carboxylic acid] |
| 0.13 | 0.7 | COCCn1c(Cc2ccc(-c3cccc(OCc4cccc5c4OC(C)(C)C5)n3)cc2F)nc2ccc(C(=O)O)cc21 [Example 152, 2-(4-(6-((2,2-dimethyl-2,3-dihydrobenzofuran-7-yl)methoxy)pyridin-2-yl)-2-fluorobenzyl)-1-(2-methoxyethyl)-1H-benzo[d]imidazole-6-carboxylic acid] |
| 0.00011 | 0.31 | N#CCC1(Cn2c(Cc3cc(F)c(-c4ccc(F)c(OCc5ccc(C#N)cc5F)n4)cc3F)nc3ccc(C(=O)O)cc32)CC1 [Example 153, 2-(4-(6-((4-cyano-2-fluorobenzyl)oxy)-5-fluoropyridin-2-yl)-2,5-difluorobenzyl)-1-((1-(cyanomethyl)cyclopropyl)methyl)-1H-benzo[d]imidazole-6-carboxylic acid] |
| 0.00051 | 0.29 | N#CCC1(Cn2c(Cc3c(F)cc(-c4ccc(F)c(OCc5ccc(C#N)cc5F)n4)cc3F)nc3ccc(C(=O)O)cc32)CC1 [Example 154, 2-(4-(6-((4-cyano-2-fluorobenzyl)oxy)-5-fluoropyridin-2-yl)-2,6-difluorobenzyl)-1-((1-(cyanomethyl)cyclopropyl)methyl)-1H-benzo[d]imidazole-6-carboxylic acid] |
| 0.0732 | 0.33 | COCCn1c(Cc2ccc(-c3cccc(OCc4cccc(C(C)(C)C)c4)n3)cc2F)nc2ccc(C(=O)O)cc21 [Example 155, 2-(4-(6-((3-(tert-butyl)benzyl)oxy)pyridin-2-yl)-2-fluorobenzyl)-1-(2-methoxyethyl)-1H-benzo[d]imidazole-6-carboxylic acid] |
